In one data set the target is T1, CYP2D6 (Homo sapiens, UniProt P10635).
T1 construct: purchased PanVera
The data set can be described thus: CYP2D6 assay (Vivid CYP2D6 Cyan Screening Kit). The class given is in vitro ADME. To be noted: read-out: Metabolism: CYP enzymes (20 μM cutoff or IC50) CYP2D6. On the procedure: (§1) Following the procedure for CYP1A2, using the appropriate kits below, the effect of a compound of the invention on the other CYP enzymes was determined:
Vivid® CYP2D6 Cyan Screening Kit from PanVera.

Another data set has as its target T2, Human DPP-I (Homo sapiens, UniProt P53634).
T2 construct: purchased UniZyme A/S
The data set can be described thus: Human dipeptidyl peptidase I (DPP-I) assay. The class given is biochemical. To be noted: Gly-Phe-AFC substrate, pH 6.0, 37° C.; read-out: Primary enzymatic screening (IC50) DPP-I. On the procedure:
Human dipeptidyl Peptidase I (DPP-I) Assay
Using this assay, the IC50 value of a compound of the invention as a DPP-I inhibitor was determined using an AFC substrate.
100 mM sodium phosphate (8.9 g Na2HPO4; M=177.99), 150 mM KCl (5.6 g KCl; M=74.6) and 1.5 mM EDTA (279 mg EDTA; M=372.2) was dissolved in 500 mL H2O, and pH was adjusted to 6.0. Cysteine*HCl (Sigma C-1276; M=157.6), 1 mg/mL assay buffer, corresponding to 6 mM, was added to the solution for activation of the DPP-1 enzyme.
Gly-Phe-AFC*TFA (Enzyme Systems Products AFC-033) was used as the substrate for determination of IC50 values. Km was 270 μM. The substrate was solubilized in DMSO to give a 7.5 mM stock solution (2.2 mg of substrate was added to 0.5 mL DMSO).
Human DPP-I (hDDP-I; obtained from UniZyme A/S, DK-2970Hørsholm, Denmark) was stored at −20° C. in a buffer containing 2.5 mM Na-phosphate, 150 mM NaCl, 2 mM cysteamine, 50% glycerol, pH 7.0 at a concentration of 2.5 mg/mL. This stock solution was diluted 200 times in the assay buffer.
The assay was performed in 96-well plates. […] The excitation wavelength was 400 nm, and the emission was measured at 505 nm for 10 minutes at 37° C. […] In the software (SOFTmax Pro) used for data collection from the fluorometer (Molecular Devices: Gemini XS), it was ensured that the measured slopes were linear (R^2>0.99). […]

Another data set addresses T3, CYP3A4 (Homo sapiens, UniProt P08684).
T3 construct: purchased PanVera
Description: CYP3A4 assay (Vivid CYP3A4 Red Screening Kit). The class given is in vitro ADME. The settings on record: read-out: Metabolism: CYP enzymes (20 μM cutoff or IC50) CYP3A4. On the procedure: as §1
Vivid® CYP3A4 Red Screening Kit from PanVera.

For 1 compound, IC50 results are on record in patent US20070099958A1, “Protease inhibitors” (ProZymex A/S, priority 2003, published 2007).

T3 sequence (P08684 2-503 limits assumed): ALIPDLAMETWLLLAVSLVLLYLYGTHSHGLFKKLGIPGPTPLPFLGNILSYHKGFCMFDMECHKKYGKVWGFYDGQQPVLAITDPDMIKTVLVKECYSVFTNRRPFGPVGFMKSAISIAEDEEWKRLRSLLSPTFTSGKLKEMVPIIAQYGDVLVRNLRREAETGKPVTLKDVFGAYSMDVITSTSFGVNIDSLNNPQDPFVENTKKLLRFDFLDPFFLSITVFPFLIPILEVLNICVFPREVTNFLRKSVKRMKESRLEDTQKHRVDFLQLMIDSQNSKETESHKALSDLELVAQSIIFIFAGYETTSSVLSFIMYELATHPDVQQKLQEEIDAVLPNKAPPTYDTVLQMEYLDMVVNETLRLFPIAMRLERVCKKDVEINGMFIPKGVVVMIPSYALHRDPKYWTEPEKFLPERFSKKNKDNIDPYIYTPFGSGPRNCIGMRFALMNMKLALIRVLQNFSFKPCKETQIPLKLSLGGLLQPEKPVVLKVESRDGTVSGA
T2 sequence (P53634 231-394 limits assumed): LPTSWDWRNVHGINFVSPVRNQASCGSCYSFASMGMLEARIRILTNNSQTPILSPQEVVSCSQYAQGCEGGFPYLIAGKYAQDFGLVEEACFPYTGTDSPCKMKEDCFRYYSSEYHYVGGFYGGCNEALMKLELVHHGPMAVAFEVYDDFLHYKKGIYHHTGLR
T2 sequence (P53634 395-463 limits assumed): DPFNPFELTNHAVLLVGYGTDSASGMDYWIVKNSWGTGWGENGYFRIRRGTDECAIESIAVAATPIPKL
T2 sequence (P53634 25-143 limits assumed): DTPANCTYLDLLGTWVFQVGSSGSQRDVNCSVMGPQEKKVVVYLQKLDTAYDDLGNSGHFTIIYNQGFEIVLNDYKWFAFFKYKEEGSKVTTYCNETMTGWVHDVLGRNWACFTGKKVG
T1 sequence (P10635 whole entry): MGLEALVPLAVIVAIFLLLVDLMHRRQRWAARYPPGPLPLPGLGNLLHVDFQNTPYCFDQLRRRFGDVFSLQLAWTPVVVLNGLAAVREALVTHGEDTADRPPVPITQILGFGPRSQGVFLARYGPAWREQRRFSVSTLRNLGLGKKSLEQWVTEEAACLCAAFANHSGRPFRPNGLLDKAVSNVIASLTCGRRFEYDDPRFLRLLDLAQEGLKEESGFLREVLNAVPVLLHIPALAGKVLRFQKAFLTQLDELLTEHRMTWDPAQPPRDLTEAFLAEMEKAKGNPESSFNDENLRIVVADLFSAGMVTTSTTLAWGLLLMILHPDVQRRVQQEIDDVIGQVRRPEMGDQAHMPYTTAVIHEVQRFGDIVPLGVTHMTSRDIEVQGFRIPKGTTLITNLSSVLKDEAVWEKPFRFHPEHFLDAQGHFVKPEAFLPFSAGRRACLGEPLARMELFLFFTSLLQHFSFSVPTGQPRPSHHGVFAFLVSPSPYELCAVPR

Regarding `CC[C@H](N)C(=O)N[C@H](C#N)Cc1ccc(-c2ccccc2)cc1` [Example 5, (2S)—N-[(2S)-2-aminobutanoyl]-2-amino-3-(1,1′-biphenyl-4-yl)propionitrile], the results for the IC50 on CYP2D6, at Human DPP-I and on CYP3A4 were 12.6 ± 0.677 µM, 0.013 ± 0.003 µM and 3.6 ± 3.41 µM, respectively.
